Laboratory results reported in US6846844B2, “Compounds and compositions for delivering active agents” (Emisphere Technologies, Inc., priority 2000, dated 2005).

Tests used:
[1] = Intracolonic delivery of heparin with delivery agent compound, activated partial thromboplastin time (APTT); assay type: in vivo, Sprague-Dawley rats; conditions: rats, intracolonic (IC); compound dose 50 mg/kg, heparin dose 25 mg/kg, volume dose 1 ml/kg; five rats; baseline about 20 sec
Experimental: Intracolonic (IC) dosing solutions containing a delivery agent compound and heparin sodium USP in 25% aqueous propylene glycol were prepared. Either the sodium salt of the delivery agent compound was used or the free acid was converted to the sodium salt with one equivalent of sodium hydroxide. Typically, the delivery agent compound and heparin (about 166-182 IU/mg) were mixed by vortex as dry powders. This dry mixture was dissolved in 25% v/v aqueous propylene glycol, vortexed and placed in a sonicator (about 37° C.). The pH was adjusted to about 7 (6.5 to 8.5) with aqueous NaOH (2N). The dosing solution was sonicated to produce a clear solution. The final volume was adjusted to 3.0 mL. The final delivery agent compound dose, heparin dose and volume dose amounts are listed below in Table 2.
The typical dosing and sampling protocols were as follows. […]
Citrated blood samples were collected by cardiac puncture following the administration of ketamine (88 mg/kg), typically at time=0.25, 0.5, 1.0 and 1.5 hours. Heparin activity was determined by utilizing the activated partial thromboplastin time (APTT) according to the method of Henry, J. B., Clinical Diagnosis and Management by Laboratory Methods, Philadelphia, Pa., W. B. Saunders (1979). […]

| Compound | Mean Peak APTT (sec) ± SD [1] [s] | melting point [°C] |
| --- | --- | --- |
| Cc1c(Cl)cc(NC(=O)CC(C)CC(=O)O)c(O)c1Cl (stereo not drawn) [Compound 1, 3R-5-[(3,5-dichloro-2-hydroxy-4-methylphenyl)amino]-3-methyl-5-oxopentanoic acid] | 205.8 ± 32.4 | 171 to 173 |
| Cc1ccc(NC(=O)C[C@@H](C)CC(=O)O)c(O)c1 [Compound 2, (3R)-5-[(2-hydroxy-4-methylphenyl)amino]-3-methyl-5-oxo-pentanoic acid] |  | 117 to 118 |
